Results: patent publication US9845296B2 (dated 2017)

melting point	SMILES
135 to 137 °C	CN(C)c1cc2[nH]c(C3CCCCC3)nc2cc1N
183 to 185 °C	CN(C)c1cc2[nH]c(C3CCCCC3)nc2cc1NC(=O)c1ccc(OC(F)F)cc1
196 to 197 °C	CN(C)c1cc2[nH]c(C3CCCCC3)nc2cc1NC(=O)c1ccc(F)cc1
173 to 174 °C	COc1cccc(C(=O)Nc2cc3nc(C4CCCCC4)[nH]c3cc2N(C)C)c1OC
